Measurements: PubChem BioAssay (NCI)
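The concentration for 50% growth inhibition is given as GI50. At the TGI there is no net growth.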

Columns and labels:
Assay in all cases: NCI-60 cell line screen, 384-well format
SR leukemia = test system: SR leukemia
HOP-62 NSCLC = test system: HOP-62 NSCLC
HL-60(TB) leukemia = test system: HL-60(TB) leukemia
MDA-MB-435 melanoma = test system: MDA-MB-435 melanoma
MDA-MB-468 breast = test system: MDA-MB-468 breast
HT29 colon = test system: HT29 colon
MCF7 breast = test system: MCF7 breast
RXF 393 renal = test system: RXF 393 renal
DU-145 prostate = test system: DU-145 prostate
NCI/ADR-RES ovarian = test system: NCI/ADR-RES ovarian
HOP-92 NSCLC = test system: HOP-92 NSCLC
SN12C renal = test system: SN12C renal
SF-268 CNS = test system: SF-268 CNS
CAKI-1 renal = test system: CAKI-1 renal
MDA-MB-231 breast = test system: MDA-MB-231 breast
A549 NSCLC = test system: A549 NSCLC
IGROV1 ovarian = test system: IGROV1 ovarian
U251 glioblastoma = test system: U251 glioblastoma
HCC-2998 colon = test system: HCC-2998 colon
UACC-62 melanoma = test system: UACC-62 melanoma
SNB-75 CNS = test system: SNB-75 CNS
NCI-H322M lung = test system: NCI-H322M lung
LOX IMVI melanoma = test system: LOX IMVI melanoma
SK-MEL-28 melanoma = test system: SK-MEL-28 melanoma
BT-549 breast = test system: BT-549 breast
M14 melanoma = test system: M14 melanoma
HCT-15 colon = test system: HCT-15 colon
MOLT-4 leukemia = test system: MOLT-4 leukemia
RPMI-8226 leukemia = test system: RPMI-8226 leukemia
COLO 205 colon = test system: COLO 205 colon
OVCAR-8 ovarian = test system: OVCAR-8 ovarian
UO-31 renal = test system: UO-31 renal
786-0 renal = test system: 786-0 renal
EKVX NSCLC = test system: EKVX NSCLC
HCT-116 colon = test system: HCT-116 colon
TK-10 renal = test system: TK-10 renal
NCI-H460 NSCLC = test system: NCI-H460 NSCLC
NCI-H23 lung = test system: NCI-H23 lung
MALME-3M melanoma = test system: MALME-3M melanoma
OVCAR-3 ovarian = test system: OVCAR-3 ovarian
PC-3 prostate = test system: PC-3 prostate
OVCAR-4 ovarian = test system: OVCAR-4 ovarian
SF-539 CNS = test system: SF-539 CNS
SW-620 colon = test system: SW-620 colon
A498 renal = test system: A498 renal
K-562 leukemia = test system: K-562 leukemia
NCI-H522 lung = test system: NCI-H522 lung
NCI-H226 lung = test system: NCI-H226 lung
HS 578T breast = test system: HS 578T breast
ACHN renal = test system: ACHN renal
SK-MEL-5 melanoma = test system: SK-MEL-5 melanoma
SF-295 CNS = test system: SF-295 CNS
UACC-257 melanoma = test system: UACC-257 melanoma
SK-OV-3 ovarian = test system: SK-OV-3 ovarian
KM12 colon = test system: KM12 colon
SNB-19 CNS = test system: SNB-19 CNS
T-47D breast = test system: T-47D breast

`O=C(C1CC1)N1CC[C@@H](Cc2n[nH]c(=O)n2-c2ccc(-c3ccc4occc4c3)cc2)C1` showed a GI50 (SR leukemia) of 24.6 µM, a TGI (SR leukemia) of 64.4 µM and a GI50 (HOP-62 NSCLC) of 19.1 µM. For the same compound, the TGI (HOP-62 NSCLC) was 75.7 µM, the GI50 (HL-60(TB) leukemia) was 0.0567 µM and the TGI (HL-60(TB) leukemia) was 21.8 µM. The GI50 (MDA-MB-435 melanoma) was 31.2 µM, the TGI (MDA-MB-435 melanoma) was > 100 µM and the GI50 (MDA-MB-468 breast) was 15.5 µM. The TGI (MDA-MB-468 breast) was 45.5 µM, the GI50 (HT29 colon) was 29.2 µM and the TGI (HT29 colon) was > 100 µM. The GI50 (MCF7 breast) was 19.9 µM, the TGI (MCF7 breast) was 92.4 µM and the GI50 (RXF 393 renal) was 20.9 µM. The TGI (RXF 393 renal) was 59.4 µM, the GI50 (DU-145 prostate) was 35.3 µM and the TGI (DU-145 prostate) was > 100 µM. For the same compound, the GI50 (NCI/ADR-RES ovarian) was 22.3 µM, the TGI (NCI/ADR-RES ovarian) was 85.1 µM and the GI50 (HOP-92 NSCLC) was 37.5 µM. For the same compound, the TGI (HOP-92 NSCLC) was > 100 µM, the GI50 (SN12C renal) was 30 µM and the TGI (SN12C renal) was > 100 µM. For the same compound, the GI50 (SF-268 CNS) was 26 µM, the TGI (SF-268 CNS) was > 100 µM and the GI50 (CAKI-1 renal) was 32.4 µM. For the same compound, the TGI (CAKI-1 renal) was > 100 µM, the GI50 (MDA-MB-231 breast) was 39.6 µM and the TGI (MDA-MB-231 breast) was > 100 µM. For the same compound, the GI50 (A549 NSCLC) was 23.4 µM, the TGI (A549 NSCLC) was > 100 µM and the GI50 (IGROV1 ovarian) was 34.3 µM. The TGI (IGROV1 ovarian) was > 100 µM, the GI50 (U251 glioblastoma) was 28 µM and the TGI (U251 glioblastoma) was > 100 µM. For the same compound, the GI50 (HCC-2998 colon) was 25.5 µM, the TGI (HCC-2998 colon) was > 100 µM and the GI50 (UACC-62 melanoma) was 34.2 µM. For the same compound, the TGI (UACC-62 melanoma) was > 100 µM, the GI50 (SNB-75 CNS) was 34.8 µM and the TGI (SNB-75 CNS) was > 100 µM. For the same compound, the GI50 (NCI-H322M lung) was 36.2 µM, the TGI (NCI-H322M lung) was > 100 µM and the GI50 (LOX IMVI melanoma) was 16.9 µM. For the same compound, the TGI (LOX IMVI melanoma) was 38.6 µM, the GI50 (SK-MEL-28 melanoma) was 31.1 µM and the TGI (SK-MEL-28 melanoma) was > 100 µM. It also gave a GI50 (BT-549 breast) of 13.3 µM, a TGI (BT-549 breast) of 72.4 µM and a GI50 (M14 melanoma) of 60.9 µM. The TGI (M14 melanoma) was > 100 µM, the GI50 (HCT-15 colon) was 34.3 µM and the TGI (HCT-15 colon) was > 100 µM. The GI50 (MOLT-4 leukemia) was 11.5 µM, the TGI (MOLT-4 leukemia) was 23.7 µM and the GI50 (RPMI-8226 leukemia) was 0.066 µM. For the same compound, the TGI (RPMI-8226 leukemia) was 17.9 µM, the GI50 (COLO 205 colon) was 42.2 µM and the TGI (COLO 205 colon) was > 100 µM. For the same compound, the GI50 (OVCAR-8 ovarian) was 36.4 µM, the TGI (OVCAR-8 ovarian) was > 100 µM and the GI50 (UO-31 renal) was 14.9 µM. The TGI (UO-31 renal) was > 100 µM, the GI50 ([…]-0 renal) was 25.6 µM and the TGI (786-0 renal) was > 100 µM. For the same compound, the GI50 (EKVX NSCLC) was 22.9 µM, the TGI (EKVX NSCLC) was > 100 µM and the GI50 (HCT-116 colon) was 20.2 µM. For the same compound, the TGI (HCT-116 colon) was 48 µM, the GI50 (TK-10 renal) was 21.7 µM and the TGI (TK-10 renal) was 60.1 µM. For the same compound, the GI50 (NCI-H460 NSCLC) was 29.7 µM, the TGI (NCI-H460 NSCLC) was > 100 µM and the GI50 (NCI-H23 lung) was 29.6 µM. For the same compound, the TGI (NCI-H23 lung) was > 100 µM, the GI50 (MALME-3M melanoma) was 30.9 µM and the TGI (MALME-3M melanoma) was 96.6 µM. For the same compound, the GI50 (OVCAR-3 ovarian) was 21.6 µM, the TGI (OVCAR-3 ovarian) was 59 µM and the GI50 (PC-3 prostate) was 42.9 µM. The TGI (PC-3 prostate) was > 100 µM, the GI50 (OVCAR-4 ovarian) was 33.3 µM and the TGI (OVCAR-4 ovarian) was > 100 µM. The GI50 (SF-539 CNS) was 53.5 µM, the TGI (SF-539 CNS) was > 100 µM and the GI50 (SW-620 colon) was 57.6 µM. For the same compound, the TGI (SW-620 colon) was > 100 µM, the GI50 (A498 renal) was 29.4 µM and the TGI (A498 renal) was > 100 µM. For the same compound, the GI50 (K-562 leukemia) was 13.5 µM, the TGI (K-562 leukemia) was 27.2 µM and the GI50 (NCI-H522 lung) was 25.3 µM. It also gave a TGI (NCI-H522 lung) of 86.6 µM, a GI50 (NCI-H226 lung) of 18.5 µM and a TGI (NCI-H226 lung) of 58.8 µM. The GI50 (HS 578T breast) was 32.5 µM, the TGI (HS 578T breast) was > 100 µM and the GI50 (ACHN renal) was 24.6 µM. For the same compound, the TGI (ACHN renal) was > 100 µM, the GI50 (SK-MEL-5 melanoma) was 15.7 µM and the TGI (SK-MEL-5 melanoma) was 29.6 µM. The GI50 (SF-295 CNS) was 18.1 µM, the TGI (SF-295 CNS) was 57.5 µM and the GI50 (UACC-257 melanoma) was 38.5 µM. For the same compound, the TGI (UACC-257 melanoma) was 91.3 µM, the GI50 (SK-OV-3 ovarian) was 33.9 µM and the TGI (SK-OV-3 ovarian) was > 100 µM. The GI50 (KM12 colon) was 39.6 µM, the TGI (KM12 colon) was > 100 µM and the GI50 (SNB-19 CNS) was 50.1 µM. The TGI (SNB-19 CNS) was > 100 µM, the GI50 (T-47D breast) was 29.8 µM and the TGI (T-47D breast) was > 100 µM.
